# Data taken from publication PMC11079024, “Identification of a family of species-selective complex I inhibitors as potential anthelmintics” (Nature Communications, 2024).
# Values joined by “and” are separate entries in the source; they are usually repeats but may differ in a detail not shown here. Equal entries are not always repeated. Where two headings read alike, the source gives them in different places.
# Tests used:
# P. pacificus complex I = P. pacificus complex I (Pristionchus pacificus, UniProt A0A454XZ18+A0A8R1Z3U8+A4UAP3); test: In vitro complex I activity assay, P. pacificus mitochondria; format: biochemical
# Experimental: (§1) Mitochondria were isolated from the following free-living nematode strains: C. elegans—N2, CB3474, ECA882, ECA917, ECA1075, ECA1080; C. briggsae—AF16; P. pacificus—PS312; and P. hermaphrodita—B178. With the exception of the P. hermaphrodita strain B178, adult worms of each strain were grown in bulk through liquid culture to obtain mitochondria in sufficient quantities. Due to poor growth in liquid media, mixed stage populations of P. hermaphrodita were washed off and collected from NGM plates seeded with OP50. The isolation of mitochondria from all free-living nematode strains followed the protocol previously outlined in Burns et al.[24]. In brief, a 1 L saturated culture of E. coli HB101 was concentrated 20-fold in 50 mL complete S-medium. ~500,000 L1 worms synchronized from an embryo preparation performed the day prior were added to the S-media/HB101 suspension and grown to adulthood over the course of 3.5 days at 20 °C with shaking at 165 rpm. Following growth, worms were collected in 10 ×15 mL conical tubes and washed 7 times in M9 buffer. Worm suspensions were then combined into a single 15 mL conical tube and diluted to a final volume of 15 mL with M9 buffer. 1 mL aliquots of worm suspension were then distributed to 15 × 1.5 mL screw-cap microcentrifuge tubes and were pelleted at 500 g for 1 min. Excess M9 was aspirated without disturbing the worm pellet. 600 μL ice-cold isolate buffer A (250 mM sucrose, 10 mM Tris (pH 7.5), 1 mM EDTA, 1 mM PMSF (freshly prepared)) and 300 μL cold glass beads were then added to each tube. Tubes were incubated on ice for 10 min, and the worms were then lysed by bead beating (6 x 30 s, with 1 min cooling intervals). Tubes containing worm lysate were centrifuged at 1,000 g for 10 min at 4 °C and the supernatant was transferred to 15 new microcentrifuge tubes on ice. The tubes were centrifuged a second time at 1,000 g for 10 min at 4 °C and the supernatant was once again transferred to 15 new microcentrifuge tubes on ice. These tubes were then centrifuged at 16,000 g for 10 min at 4 °C. The resulting mitochondrial pellet was washed twice by re-suspension in 300 μL of ice-cold isolate buffer B (250 mM sucrose, 10 mM Tris (pH 7.5), 1 mM EDTA). Following the final wash, isolation buffer was aspirated from each tube and the pellets were flash-frozen in ethanol/dry ice and stored at −80 °C until needed.
# (§2) The enzymatic activities of individual ETC complexes (I-IV) were assessed spectrophotometrically in isolated mitochondria using a Varioskan LUX Multimode plate reader (ThermoFisher Scientific). Mitochondrial pellets previously isolated were thawed on ice and resuspended in ice-cold isolation buffer (250 mM sucrose, 10 mM Tris (pH 7.5), 1 mM EDTA). The BCA assay (Walker, 1994) was used to quantify the protein concentration of mitochondria suspensions; solutions were diluted to a concentration of 0.2 mg/mL for use in all assays. For the complex I assay, mitochondria pellets were freeze-thawed on ice three times to increase enzyme accessibility. […] 20 μL mitochondria suspension was then added/mixed with a pipette to initiate the reaction. Immediately following the addition of mitochondria, absorbance was measured (complex I and II: 600 nm; complex III and IV: 550 nm) in 30 s intervals over 15 min. Enzymatic activity was determined in each reaction by plotting absorbance versus time and calculating the slope of the curve during the initial linear phase of the reaction. […] Percent activity of each complex was calculated by dividing the enzyme-specific activity of each well by the enzyme-specific activity of the corresponding solvent controls.
# (§3) Chemical solutions were prepared in complex I assay buffer composed of 25 mM KPi buffer (pH 7.5), 3 mg/mL bovine serum albumin (BSA), 80 μM NADH, 60 μM decylubiquinone, 160 μM DCIP, 2 μM antimycin A and 2 mM KCN. […]
# [1] = test system: P. hermaphrodita complex I; test: In vitro complex I activity assay, P. hermaphrodita mitochondria; format: biochemical, Phasmarhabditis hermaphrodita; settings: for in vitro complex I activity relative to solvent control: P. hermaphrodita mitochondria
# Experimental: as §1, §2, §3
structure (smiles),measurement,setting,value
Cc1nc2ccccc2n1Cc1ccc(Cl)cc1 [STK697993],remaining activity at 0.0001 µM,"P. pacificus complex I; P. pacificus mitochondria, 0.0001 µM, Mean, read-out: in vitro complex I activity relative to solvent control",94.6%
same,in vitro complex I activity relative to solvent control,"P. pacificus complex I; P. pacificus mitochondria, 0.0001 µM, single replicate",101.484% and 94.523%
same,remaining activity at 0.0001 µM,"P. pacificus complex I; P. pacificus mitochondria, 0.0001 µM, single replicate, read-out: in vitro complex I activity relative to solvent control",87.6%
same,remaining activity at 0.0005 µM,"P. pacificus complex I; P. pacificus mitochondria, 0.0005 µM, Mean, read-out: in vitro complex I activity relative to solvent control",77.4%
same,in vitro complex I activity relative to solvent control,"P. pacificus complex I; P. pacificus mitochondria, 0.0005 µM, single replicate",88.361% and 49.299%
same,remaining activity at 0.001 µM,"P. pacificus complex I; P. pacificus mitochondria, 0.001 µM, Mean, read-out: in vitro complex I activity relative to solvent control",107%
same,in vitro complex I activity relative to solvent control,"P. pacificus complex I; P. pacificus mitochondria, 0.001 µM, single replicate",104.362% and 121.410% and 94.602%
same,remaining activity at 0.0025 µM,"P. pacificus complex I; P. pacificus mitochondria, 0.0025 µM, Mean, read-out: in vitro complex I activity relative to solvent control",102%
same,in vitro complex I activity relative to solvent control,"P. pacificus complex I; P. pacificus mitochondria, 0.0025 µM, single replicate",89.591% and 126.458% and 89.566%
same,remaining activity at 0.005 µM,"P. pacificus complex I; P. pacificus mitochondria, 0.005 µM, Mean, read-out: in vitro complex I activity relative to solvent control",96.6%
same,in vitro complex I activity relative to solvent control,"P. pacificus complex I; P. pacificus mitochondria, 0.005 µM, single replicate",89.435% and 110.953% and 89.424%
same,remaining activity at 0.013 µM,"P. pacificus complex I; P. pacificus mitochondria, 0.013 µM, Mean, read-out: in vitro complex I activity relative to solvent control",82.8%
same,in vitro complex I activity relative to solvent control,"P. pacificus complex I; P. pacificus mitochondria, 0.013 µM, single replicate",85.370% and 80.753%
same,remaining activity at 0.013 µM,"P. pacificus complex I; P. pacificus mitochondria, 0.013 µM, single replicate, read-out: in vitro complex I activity relative to solvent control",82.3%
same,remaining activity at 0.025 µM,"P. pacificus complex I; P. pacificus mitochondria, 0.025 µM, Mean, read-out: in vitro complex I activity relative to solvent control",81.8%
same,in vitro complex I activity relative to solvent control,"P. pacificus complex I; P. pacificus mitochondria, 0.025 µM, single replicate",78.182% and 98.911% and 68.184%
same,remaining activity at 0.063 µM,"P. pacificus complex I; P. pacificus mitochondria, 0.063 µM, Mean, read-out: in vitro complex I activity relative to solvent control",55.6%
same,in vitro complex I activity relative to solvent control,"P. pacificus complex I; P. pacificus mitochondria, 0.063 µM, single replicate",59.066% and 53.138%
same,remaining activity at 0.063 µM,"P. pacificus complex I; P. pacificus mitochondria, 0.063 µM, single replicate, read-out: in vitro complex I activity relative to solvent control",54.5%
same,remaining activity at 0.125 µM,"P. pacificus complex I; P. pacificus mitochondria, 0.125 µM, Mean, read-out: in vitro complex I activity relative to solvent control",36.1%
same,in vitro complex I activity relative to solvent control,"P. pacificus complex I; P. pacificus mitochondria, 0.125 µM, single replicate",35.771% and 33.806%
same,remaining activity at 0.125 µM,"P. pacificus complex I; P. pacificus mitochondria, 0.125 µM, single replicate, read-out: in vitro complex I activity relative to solvent control",38.7%
same,remaining activity at 0.313 µM,"P. pacificus complex I; P. pacificus mitochondria, 0.313 µM, Mean, read-out: in vitro complex I activity relative to solvent control",20.5%
same,in vitro complex I activity relative to solvent control,"P. pacificus complex I; P. pacificus mitochondria, 0.313 µM, single replicate",25.713% and 19.065%
same,remaining activity at 0.313 µM,"P. pacificus complex I; P. pacificus mitochondria, 0.313 µM, single replicate, read-out: in vitro complex I activity relative to solvent control",16.8%
same,remaining activity at 0.625 µM,"P. pacificus complex I; P. pacificus mitochondria, 0.625 µM, Mean, read-out: in vitro complex I activity relative to solvent control",17.3%
same,in vitro complex I activity relative to solvent control,"P. pacificus complex I; P. pacificus mitochondria, 0.625 µM, single replicate",22.397% and 7.371% and 22.004%
same,remaining activity at 1.5 µM,"P. pacificus complex I; P. pacificus mitochondria, 1.5 µM, Mean, read-out: in vitro complex I activity relative to solvent control",18.5%
same,in vitro complex I activity relative to solvent control,"P. pacificus complex I; P. pacificus mitochondria, 1.5 µM, single replicate",23.927% and 2.400% and 29.263%
same,remaining activity at 3 µM,"P. pacificus complex I; P. pacificus mitochondria, 3 µM, Mean, read-out: in vitro complex I activity relative to solvent control",15.2%
same,in vitro complex I activity relative to solvent control,"P. pacificus complex I; P. pacificus mitochondria, 3 µM, single replicate",21.335% and 0.000% and 24.340%
same,remaining activity at 15 µM,"P. pacificus complex I; P. pacificus mitochondria, 15 µM, Mean, read-out: in vitro complex I activity relative to solvent control",7.59%
same,in vitro complex I activity relative to solvent control,"P. pacificus complex I; P. pacificus mitochondria, 15 µM, single replicate",11.369% and 0.506% and 10.901%
same,remaining activity at 37.5 µM,"P. pacificus complex I; P. pacificus mitochondria, 37.5 µM, Mean, read-out: in vitro complex I activity relative to solvent control",7.5%
same,in vitro complex I activity relative to solvent control,"P. pacificus complex I; P. pacificus mitochondria, 37.5 µM, single replicate",6.933% and 4.878% and 10.703%
same,remaining activity at 75 µM,"P. pacificus complex I; P. pacificus mitochondria, 75 µM, Mean, read-out: in vitro complex I activity relative to solvent control",4.35%
same,in vitro complex I activity relative to solvent control,"P. pacificus complex I; P. pacificus mitochondria, 75 µM, single replicate",3.580% and 5.152%
same,remaining activity at 75 µM,"P. pacificus complex I; P. pacificus mitochondria, 75 µM, single replicate, read-out: in vitro complex I activity relative to solvent control",4.33%
same,IC50,P. pacificus complex I; purified mitochondria,70 nM
same,in vitro complex I activity relative to solvent control,"[1]; 0.0001 µM, Mean",89.612%
same,in vitro complex I activity relative to solvent control,"[1]; 0.0001 µM, single replicate",93.319% and 105.139% and 70.379%
same,in vitro complex I activity relative to solvent control,"[1]; 0.0005 µM, Mean",95.634%
same,in vitro complex I activity relative to solvent control,"[1]; 0.0005 µM, single replicate",119.766% and 92.855% and 74.280%
same,in vitro complex I activity relative to solvent control,"[1]; 0.001 µM, Mean",90.469%
same,in vitro complex I activity relative to solvent control,"[1]; 0.001 µM, single replicate",96.266% and 129.304% and 45.836%
same,in vitro complex I activity relative to solvent control,"[1]; 0.0025 µM, Mean",83.278%
same,in vitro complex I activity relative to solvent control,"[1]; 0.0025 µM, single replicate",64.388% and 114.111% and 71.337%
same,in vitro complex I activity relative to solvent control,"[1]; 0.005 µM, Mean",110.209%
same,in vitro complex I activity relative to solvent control,"[1]; 0.005 µM, single replicate",99.329% and 145.962% and 85.335%
same,in vitro complex I activity relative to solvent control,"[1]; 0.013 µM, Mean",102.008%
same,in vitro complex I activity relative to solvent control,"[1]; 0.013 µM, single replicate",103.702% and 118.527% and 83.796%
same,in vitro complex I activity relative to solvent control,"[1]; 0.025 µM, Mean",81.894%
same,in vitro complex I activity relative to solvent control,"[1]; 0.025 µM, single replicate",82.152% and 107.849% and 55.682%
same,in vitro complex I activity relative to solvent control,"[1]; 0.063 µM, Mean",53.328%
same,in vitro complex I activity relative to solvent control,"[1]; 0.063 µM, single replicate",61.601% and 65.149% and 33.235%
same,in vitro complex I activity relative to solvent control,"[1]; 0.125 µM, Mean",31.057%
same,in vitro complex I activity relative to solvent control,"[1]; 0.125 µM, single replicate",37.073% and 51.097% and 5.000%
same,in vitro complex I activity relative to solvent control,"[1]; 0.313 µM, Mean",8.632%
same,in vitro complex I activity relative to solvent control,"[1]; 0.313 µM, single replicate",10.235% and 15.661% and 0.000%
same,in vitro complex I activity relative to solvent control,"[1]; 0.625 µM, Mean",5.779%
same,in vitro complex I activity relative to solvent control,"[1]; 0.625 µM, single replicate",0.000% and 9.493% and 7.843%
same,in vitro complex I activity relative to solvent control,"[1]; 1.5 µM, Mean",4.860%
same,in vitro complex I activity relative to solvent control,"[1]; 1.5 µM, single replicate",0.000% and 2.483% and 12.098%
same,in vitro complex I activity relative to solvent control,"[1]; 3 µM, Mean",2.448%
same,in vitro complex I activity relative to solvent control,"[1]; 3 µM, single replicate",0.000% and 7.344%
same,in vitro complex I activity relative to solvent control,"[1]; 15 µM, Mean",12.306%
same,in vitro complex I activity relative to solvent control,"[1]; 15 µM, single replicate",12.065% and 18.802% and 6.051%
same,in vitro complex I activity relative to solvent control,"[1]; 37.5 µM, Mean",7.732%
same,in vitro complex I activity relative to solvent control,"[1]; 37.5 µM, single replicate",0.065% and 16.547% and 6.585%
same,in vitro complex I activity relative to solvent control,"[1]; 75 µM, Mean",3.784%
same,in vitro complex I activity relative to solvent control,"[1]; 75 µM, single replicate",0.000% and 11.350%
same,IC50,[1]; purified mitochondria,70.3 nM
